Results: PubChem BioAssay AID179 (DTP/NCI, 2004)
“And” between values parts separate entries of the source, which are not always exact repeats. Identical values can stand only once. The source made the active and inactive calls.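 The calls were made as follows: active = compounds giving half or more protection of infected cells from virus-caused growth loss, again on retest; inactive = the rest.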 Where a SMILES comes first, the peptide text is derived from it. The star is where a group is joined. Cbz = O=C(OCc1ccccc1)*; NHNH2 = NN*

Tested on: CEM cells HIV-1 protection, formazan growth assay
Test: NCI AIDS Antiviral Assay
Details: for IC50: measured here: growth of uninfected CEM cells
Procedure, shortened: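 Five concentrations of each compound were applied to infected and uninfected human CEM cells. Protection from HIV-1 was judged from growth measured with a soluble formazan assay.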

With `C/C=C/[C@@]1(OC(=O)c2ccccc2)C[C@@H]2CCCC[C@@H]21` the outcome was “inactive”.
For `CN(C)C=Nc1ccc2[nH]c3ccccc3c2c1`, the EC50 was greater than 200 µM and the IC50 was 107 µM.
`CC[C@@H]1ON(C)[C@H]2CN(C)C(=O)[C@@H]12` showed an EC50 greater than 200 µM and an IC50 greater than 200 µM.
`CC(C)C(O)C(=O)C(F)C(C)C` (centres undefined) showed an EC50 greater than 1410 µM and an IC50 greater than 1410 µM.
`COc1cc(-c2cc(=O)c3c(C)cc(O)cc3o2)cc(OC)c1OC` was tested, and the EC50 was 112 µM and the IC50 was greater than 200 µM.
`CCOC(=O)CCC(NC(=O)c1ccc(OCc2ccc3nc(-c4ccccc4)c(Cl)nc3c2)cc1)C(=O)OCC` (centres undefined) was tested, and the EC50 was greater than 200 µM and the IC50 was 43.7 µM.
`CCOP(=S)(OCC)Oc1ccc(Sc2ccc(OP(=S)(OCC)OCC)cc2)cc1` showed an EC50 greater than 200 µM and an IC50 of 30.9 µM.
`Cc1cc2nn(C3CCCO3)nc2cc1C` (centres undefined) showed an EC50 greater than 200 µM and an IC50 greater than 200 µM.
With `CCOC(=O)c1c(SC(=O)c2ccc(Cl)cc2)n(-c2ccccc2)c(=S)n(-c2ccccc2)c1=O` the EC50 was greater than 200 µM and the IC50 was 141 µM.
`CC(C)C12OC1CC13OC1C1OC1C1OC132` (centres undefined) showed an EC50 greater than 200 µM and an IC50 greater than 200 µM.
For `O=C(NCCc1c[nH]c2ccccc12)C(F)(F)F`, the EC50 was greater than 200 µM and the IC50 was greater than 200 µM.
`N#CC1(C#N)C(C#N)(C#N)C1(C#N)C(N)=O` showed an EC50 greater than 200 µM and an IC50 greater than 200 µM.
`Nc1ccn(C2CCC3(CO)CC23)c(=O)n1` (centres undefined) gave an EC50 greater than 50.1 µM and an IC50 greater than 50.1 µM.
With `Cc1ccc(Cc2cc(N3CCN(c4cccc(Cl)c4)CC3)nnc2C)cc1` the EC50 was greater than 100 µM and the IC50 was 16.6 µM.
In the case of `CC(C)CC1C(=O)OC(C)(C)OC1=O`, the EC50 is reported as greater than 200 µM and the IC50 is reported as greater than 200 µM.
For `COc1ccc(COC(=O)NCC(=O)NC(C)C(=O)NC(Cc2ccccc2)C(=O)OCc2ccccc2)cc1` (centres undefined), the EC50 was greater than 200 µM and the IC50 was 45.7 µM and 12.9 µM.
For `N#Cc1nc(CCC(C(=O)O)N2C(=O)c3ccccc3C2=O)oc1N` (centres undefined), the EC50 was greater than 100 µM and the IC50 was greater than 100 µM.
In the case of `O=C1C(c2ccccc2)=C(c2ccccc2)C1(Cl)Cl`, the EC50 is reported as greater than 200 µM and the IC50 is reported as 2.45 µM.
Work on `COC(=O)c1ccccc1CC1Cc2c(C)ccc(C)c2C1=O` (centres undefined) yielded an EC50 greater than 200 µM and an IC50 of 34.7 µM.
`COC(=O)CC(NC(=O)OCc1ccccc1)C(=O)NC(CC(=O)OC)C(=O)NC(CC(=O)OC)C(=O)NC(CC(=O)OC)C(=O)NC(CC(=O)OC)C(=O)NC(CC(=O)OC)C(=O)NN` (centres undefined) (Cbz-D(OMe)D(OMe)D(OMe)D(OMe)D(OMe)D(OMe)-NHNH2; configuration not given here) showed an EC50 greater than 100 µM and an IC50 greater than 100 µM.
`CC1=NN(C(=O)CC(=O)NC(=O)/C=C\c2ccccc2)C(=O)C1N=Nc1ccc([N+](=O)[O-])cc1` (centres undefined) was tested, and the outcome was “inactive”.
Work on `CC(=O)Nc1ccc(NC(=O)CC(=O)Nc2ccc(NC(C)=O)cc2)cc1` yielded an EC50 greater than 200 µM and an IC50 greater than 200 µM.
In the case of `COc1ccc(/C=C/C(=O)c2ccccc2)cc1OC`, the EC50 is reported as greater than 97.7 µM and the IC50 is reported as 18.2 µM.
With `CCCCN(CCCC)C(=O)C(=O)CC(=O)c1ccc(Br)cc1` the outcome was “inactive”.
`COC1=CC(=O)c2ccccc2C1(C)C1=NC(C)(C)CO1` (centres undefined) gave an EC50 greater than 631 µM and an IC50 greater than 631 µM.
With `CCCSS/C(CCO)=C(\C)N(C=O)Cc1cnc(C)nc1N` the EC50 was greater than 200 µM and the IC50 was 10.5 µM.
`NC(CCOCCP(=O)(O)CCC1C=CC=CC1)C(=O)O` (centres undefined) was tested, and the EC50 was greater than 200 µM and the IC50 was greater than 200 µM.
For `COc1cc(C2C3=C(COC3=O)Oc3cc4c(cc32)OCO4)cc(OC)c1O` (centres undefined), the EC50 was greater than 2 µM and the IC50 was 0.0562 µM.
With `COc1ccccc1NC(=O)C(/C=N/C(=S)NNC(C)=O)=C(/C)O` the EC50 was greater than 200 µM and the IC50 was greater than 200 µM.
`Cc1nc2c(Br)cc(Br)cc2c(=O)n1-c1ccccc1NC1OCC(O)C(O)C1O` (centres undefined) was tested, and the EC50 was greater than 200 µM.
Molecule `CNS(=O)(=O)NN(C)S(=O)(=O)c1ccc2ccccc2c1` has an EC50 greater than 759 µM and an IC50 of 110 µM.
Molecule `O=c1n(-c2ccccc2)c(=O)n2n1C1C3C4CCC1C4(Cl)C32` (centres undefined) has an EC50 greater than 40.7 µM and an IC50 greater than 40.7 µM.
In the case of `CC(=O)NC1C(=O)N([C@H](COCc2ccccc2)c2ccccc2)[C@@H]1COC(C)(C)C` (some centres undefined), the EC50 is reported as greater than 295 µM and the IC50 is reported as 186 µM.
With `CC(C)(O)[C@@H]1CCC(C)([C@H]2[C@@H](O)CC3(C)C4CC(OC5OC(CO)C(O)C(O)C5O)C5C(C)(C)[C@@H](OC6OCC(O)C(O)C6O)CC[C@@]56C[C@@]46CC[C@]23C)O1` (some centres undefined) the EC50 was greater than 120 µM and the IC50 was greater than 120 µM.
For `O=C1C(Cl)N(c2ccccc2[N+](=O)[O-])C1c1c[nH]c2ccccc12` (centres undefined), the EC50 was greater than 275 µM and the IC50 was 132 µM.
In the case of `COc1nc(=O)n(C)cc1B(O)O`, the EC50 is reported as greater than 200 µM and the IC50 is reported as 32.4 µM.
Molecule `CCNCC(O)c1ccc(N)c([N+](=O)[O-])c1` (centres undefined) has an EC50 greater than 200 µM and an IC50 greater than 200 µM.
`Cn1c2c(c3ccccc31)CCN(CCCCN1CCN(c3cccc(Cl)c3)CC1)C2=O` gave an EC50 greater than 11 µM and an IC50 greater than 11 µM.
In the case of `CCCCC(CC)CO[Si](OCC(CC)CCCC)(OCC(CC)CCCC)OCC(CC)CCCC` (centres undefined), the outcome is reported as “inactive”.
In the case of `C(=C\P(c1ccccc1)c1ccccc1)/P(/C=C/P(c1ccccc1)c1ccccc1)c1ccccc1`, the EC50 is reported as greater than 4.9 µM and the IC50 is reported as greater than 4.9 µM.
In the case of `CCc1cc(Cc2cc(Cl)c(NC(=O)C(=O)C3NC(=O)NC3=O)c(CC)c2)cc(Cl)c1NC(=O)C(=O)C1NC(=O)NC1=O` (centres undefined), the EC50 is reported as greater than 151 µM and the IC50 is reported as 24.5 µM.
`O=[N+]([O-])c1ccc(OP(=O)(O)OCC2OC(CP(=O)(O)O)C(O)C2O)cc1` (centres undefined) showed an EC50 greater than 200 µM and an IC50 greater than 200 µM.
